# Laboratory results published in patent publication US20120135975A1, “Substituted Esters as Cannabinoid-1 Receptor Modulators” (MERCK & CO., INC., priority 2006, published 2012).
# Columns and labels:
# [1] = molecular target: T1, recombinant human CB2 receptor (Homo sapiens, UniProt P34972); assay: CB2 receptor functional assay (cAMP); type: cell-based; conditions: CB2 receptor expressed in CHO cells
# T1 construct: expressed in transfected cells
# Procedure: (§1) The functional activation of CB1 receptor is based on recombinant human CB1 receptor expressed in CHO cells (Felder et al, Mol. Pharmacol. 48: 443-450, 1995). To determine the agonist activity or inverse agonist activity of any test compound, 50 μL of CB1-CHO cell suspension are mixed with test compound and 70 uL assay buffer containing 0.34 mM 3-isobutyl-1-methylxanthine and 5.1 μM of forskolin in 96-well plates. The assay buffer is comprised of Earle's Balanced Salt Solution supplemented with 5 mM MgCl2, 1 mM glutamine, 10 mM HEPES, and 1 mg/mL bovine serum albumin. The mixture is incubated at room temperature for 30 minutes, and terminated by adding 30 μl/well of 0.5M HCl. The total intracellular cAMP level is quantitated using the New England Nuclear Flashplate and cAMP radioimmunoassay kit.
# (§2) To determine the antagonist activity of test compound, the reaction mixture also contains 0.5 nM of the agonist CP55940, and the reversal of the CP55940 effect is quantitated. Alternatively, a series of dose response curves for CP55940 is performed with increasing concentration of the test compound in each of the dose response curves.
# The functional assay for the CB2 receptor is done similarly with recombinant human CB2 receptor expressed in CHO cells.
# [2] = molecular target: T1, recombinant human CB2 receptor; assay: CB2 receptor binding assay; conditions: receptor expressed in CHO cells
# Procedure: (§3) Binding affinity determination is based on recombinant human CB1 receptor expressed in Chinese Hamster Ovary (CHO) cells (Felder et al, Mol. Pharmacol. 48: 443-450, 1995). Total assay volume is 250 μL (240 μL CB1 receptor membrane solution plus 5 μL test compound solution plus 5 μL [3H]CP-55940 solution). Final concentration of [3H]CP-55940 is 0.6 nM. Binding buffer contains 50 mM Tris-HCl, pH7.4, 2.5 mM EDTA, 5 mM MgCl2, 0.5 mg/mL fatty acid free bovine serum albumin and protease inhibitors (Cat#P8340, from Sigma). To initiate the binding reaction, 5 μL of radioligand solution is added, the mixture is incubated with gentle shaking on a shaker for 1.5 hours at 30° C. The binding is terminated by using 96-well harvester and filtering through GF/C filter presoaked in 0.05% polyethylenimine. The bound radiolabel is quantitated using scintillation counter. Apparent binding affinities for various compounds are calculated from IC50 values (DeBlasi et al., Trends Pharmacol Sci 10: 227-229, 1989).
# The binding assay for CB2 receptor is done similarly with recombinant human CB2 receptor expressed in CHO cells.
# [3] = molecular target: T2, recombinant human CB1 receptor (Homo sapiens, UniProt P21554); assay: Cannabinoid Receptor-1 (CB1) functional activity assay (cAMP); type: cell-based; conditions: CB1-CHO cells, forskolin-stimulated cAMP
# T2 construct: expressed in transfected cells
# T2 sequence (P21554 whole entry): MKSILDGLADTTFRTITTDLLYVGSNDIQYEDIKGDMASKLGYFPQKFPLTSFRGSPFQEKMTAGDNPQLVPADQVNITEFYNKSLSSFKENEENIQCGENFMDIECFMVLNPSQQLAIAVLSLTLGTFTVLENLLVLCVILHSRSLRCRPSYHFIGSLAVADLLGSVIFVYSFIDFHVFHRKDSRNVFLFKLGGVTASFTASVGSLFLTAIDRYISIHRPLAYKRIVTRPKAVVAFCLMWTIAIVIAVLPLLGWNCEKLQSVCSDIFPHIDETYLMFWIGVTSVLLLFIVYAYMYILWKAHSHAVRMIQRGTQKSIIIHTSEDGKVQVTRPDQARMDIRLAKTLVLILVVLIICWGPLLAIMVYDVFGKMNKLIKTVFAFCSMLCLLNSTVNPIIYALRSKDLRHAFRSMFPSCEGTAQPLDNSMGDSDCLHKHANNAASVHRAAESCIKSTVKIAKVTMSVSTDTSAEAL
# Procedure: as §1, §2
# [4] = molecular target: T2, recombinant human CB1 receptor; assay: Cannabinoid Receptor-1 (CB1) binding assay; conditions: [3H]CP-55940 0.6 nM, receptor expressed in CHO cells
# Procedure: as §3
# T1 sequence (P34972 whole entry): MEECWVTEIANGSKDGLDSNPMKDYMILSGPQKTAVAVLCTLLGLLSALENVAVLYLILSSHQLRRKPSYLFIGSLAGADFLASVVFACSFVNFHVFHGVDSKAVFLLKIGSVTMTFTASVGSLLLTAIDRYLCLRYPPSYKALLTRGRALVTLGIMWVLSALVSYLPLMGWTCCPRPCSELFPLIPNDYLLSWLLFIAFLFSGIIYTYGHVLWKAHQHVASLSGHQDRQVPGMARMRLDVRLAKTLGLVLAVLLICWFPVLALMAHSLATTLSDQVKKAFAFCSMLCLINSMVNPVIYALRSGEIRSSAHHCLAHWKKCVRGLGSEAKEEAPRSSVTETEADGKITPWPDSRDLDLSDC
structure (smiles),measurement,setting,value
"C[C@H](NC(=O)C(C)(C)OC(=O)c1c(Cl)cccc1Cl)[C@@H](Cc1ccc(Cl)cc1)c1cccc(C#N)c1 [Example 30, N-(3-(4-chlorophenyl)-2(S)-(3-cyanophenyl)-1(S)-methylpropyl)-2-(2,6-dichloro-benzoyloxy)-2-methyl-propanamide]",% max in the CB2 functional assay,[1],−192 % max
same,EC50,[1],162 nM
same,IC50,[2],811 nM
same,% max in the CB1 functional assay,[3],−157 % max
same,EC50,[3],1.85 nM
same,IC50,[4],2.54 nM
